Results published in ChEMBL document CHEMBL5113532, “Design and Characterization of a Natural Arf-GEFs Inhibitor Prodrug CHNQD-01255 with Potent Anti-Hepatocellular Carcinoma Efficacy In Vivo” (J Med Chem, 2022).
Values after ≈ are worked out from the molar mass of the structure shown.

What was measured:
HepG2 = experiment: Antiproliferative activity against human HepG2 cells by MTT assay; type: functional, cell-based
Bel-7402 = experiment: Antiproliferative activity against human Bel-7402 cells by MTT assay; type: functional, cell-based
[1] = Clearance in ICR mouse at 10 mg/kg, iv measured after 0.083 to 12 hrs by UPLC-MS/MS analysis; type: ADME, organism-based; settings: in vivo, time 0.083-12 hrs
[2] = Solubility of the compound in saline/PEG400 (80/20% V/V) at pH 7.4; type: physicochemical
[3] = Solubility of the compound in 0.9% NaCl at pH 7.4; type: physicochemical
[4] = Oral bioavailability in ICR mouse at 45 mg/kg measured after 0.083 to 12 hrs by UPLC-MS/MS analysis; type: ADME, organism-based; settings: in vivo, time 0.083-12 hrs
[5] = Solubility of the compound in saline/solutol HS-15 (95/5% V/V) at pH 7.4; type: physicochemical
[6] = MRT (0 to t) in ICR mouse at 10 mg/kg, iv measured after 0.083 to 12 hrs by UPLC-MS/MS analysis; type: ADME, organism-based; settings: in vivo, time 0.083-12 hrs
[7] = Apparent volume of distribution in ICR mouse at 45 mg/kg, po measured after 0.083 to 12 hrs by UPLC-MS/MS analysis; type: ADME, organism-based; settings: in vivo, time 0.083-12 hrs
[8] = Acute toxicity in ip dosed ICR mouse assessed as maximum tolerated dose; type: organism-based; settings: in vivo
[9] = Acute toxicity in po dosed ICR mouse assessed as maximum tolerated dose; type: organism-based; settings: in vivo
[10] = Solubility of the compound in PBS/DMSO (95/5% V/V) at pH 7.2 to 7.4; type: physicochemical
[11] = AUC (0 to t) in ICR mouse at 45 mg/kg, po measured after 0.083 to 12 hrs by UPLC-MS/MS analysis; type: ADME, organism-based; parameters: dose 45 mg/kg, time upper 12 hrs, time lower 0.083 hrs, route po; settings: in vivo
[12] = Cmax in ICR mouse at 45 mg/kg, po measured after 0.083 to 12 hrs by UPLC-MS/MS analysis; type: ADME, organism-based; parameters: dose 45 mg/kg, time upper 12 hrs, time lower 0.083 hrs, route po; settings: in vivo
[13] = Clearance in ICR mouse at 45 mg/kg, po measured after 0.083 to 12 hrs by UPLC-MS/MS analysis; type: ADME, organism-based; settings: in vivo, time 0.083-12 hrs
[14] = Solubility of the compound in saline/DMSO (95/5% V/V) at pH 7.4; type: physicochemical
[15] = Solubility of the compound in saline/PEG400 (95/5% V/V) at pH 7.4; type: physicochemical
[16] = Solubility of the compound in saline/solutol HS-15 (90/10% V/V) at pH 7.4; type: physicochemical
[17] = Solubility of the compound in saline/DMSO/solutol HS-15 (85/5/10% V/V/V) at pH 7.4; type: physicochemical
[18] = Half life in ICR mouse at 45 mg/kg, po measured after 0.083 to 12 hrs by UPLC-MS/MS analysis; type: ADME, organism-based; settings: in vivo, time 0.083-12 hrs
[19] = Cmax in ICR mouse at 10 mg/kg, iv measured after 0.083 to 12 hrs by UPLC-MS/MS analysis; type: ADME, organism-based; parameters: time 0.083-12 hrs, dose 10 mg/kg, route iv; settings: in vivo
[20] = Half life in ICR mouse at 10 mg/kg, iv measured after 0.083 to 12 hrs by UPLC-MS/MS analysis; type: ADME, organism-based; settings: in vivo, time 0.083-12 hrs
[21] = Apparent volume of distribution in ICR mouse at 10 mg/kg, iv measured after 0.083 to 12 hrs by UPLC-MS/MS analysis; type: ADME, organism-based; settings: in vivo, time 0.083-12 hrs, read-out: Vz
[22] = AUC(0 to t) in ICR mouse at 10 mg/kg, iv measured after 0.083 to 12 hrs by UPLC-MS/MS analysis; type: ADME, organism-based; parameters: time upper 12 hrs, dose 10 mg/kg, time lower 0.083 hrs, route iv; settings: in vivo
[23] = MRT (0 to t) in ICR mouse at 45 mg/kg, po measured after 0.083 to 12 hrs by UPLC-MS/MS analysis; type: ADME, organism-based; settings: in vivo, time 0.083-12 hrs

## Cc1cncc(C(=O)O[C@@H]2/C=C/C(=O)O[C@@H](C)CCC/C=C/[C@@H]3C[C@H](O)C[C@H]32)c1
HepG2
  IC50: > 1000 nM

## C[C@H]1CCC/C=C/[C@@H]2C[C@H](O)C[C@H]2[C@H](OC(=O)c2cncc(F)c2)/C=C/C(=O)O1
HepG2
  IC50: 930 nM

## C[C@H]1CCC/C=C/[C@@H]2C[C@H](OC(=O)CN(C)C)C[C@H]2[C@H](O)/C=C/C(=O)O1
HepG2
  IC50: > 1000 nM
Bel-7402
  IC50: > 1000 nM

## C[C@H]1CCC/C=C/[C@@H]2C[C@H](O)C[C@H]2[C@H](O)/C=C/C(=O)O1 [BREFELDIN A]
HepG2
  IC50: 80 nM
[1]
  clearance: 26.3 mL/min/kg
[2]
  solubility: < 1000 µg/mL
[3]
  solubility: < 1000 µg/mL
[4]
  bioavailability: 19%
[5]
  solubility: < 1000 µg/mL
[6]
  MRT last: 0.84 h
[7]
  Vz: 31.87132 L/kg
[8]
  MTD: < 50 mg/kg
Bel-7402
  IC50: 70 nM
[9]
  MTD: < 506 mg/kg
[10]
  solubility: < 1000 µg/mL
[11]
  AUC(0-t): 4130 ng·h/mL
[12]
  Cmax: 7140 ng/mL
[13]
  CL/F: 173 mL/min/kg
[14]
  solubility: < 1000 µg/mL
[15]
  solubility: < 1000 µg/mL
[16]
  solubility: < 1000 µg/mL
[17]
  solubility: 1000 µg/mL (≈ 3.57 mM)
[18]
  half-life: 2.12 h
[19]
  Cmax: 13200 ng/mL
[20]
  half-life: 9.05 h
[21]
  Vd: 20.6 L/kg
[22]
  AUC(0-t): 4840 ng·h/mL
[23]
  MRT last: 1.4 h

## COC(=O)O[C@@H]1C[C@H]2[C@H](O)/C=C/C(=O)O[C@@H](C)CCC/C=C/[C@@H]2C1
HepG2
  IC50: > 1000 nM

## Cc1cncc(C(=O)O[C@@H]2C[C@H]3[C@H](O)/C=C/C(=O)O[C@@H](C)CCC/C=C/[C@@H]3C2)c1
HepG2
  IC50: > 1000 nM

## C[C@H]1CCC/C=C/[C@@H]2C[C@H](OC(=O)OCCS)C[C@H]2[C@H](O)/C=C/C(=O)O1
HepG2
  IC50: > 1000 nM

## C[C@H]1CCC/C=C/[C@@H]2C[C@H](OC(=O)NCc3ccncc3)C[C@H]2[C@H](O)/C=C/C(=O)O1
HepG2
  IC50: > 1000 nM

## C[C@H]1CCC/C=C/[C@@H]2C[C@H](OC(=O)NCc3cccnc3)C[C@H]2[C@H](O)/C=C/C(=O)O1
HepG2
  IC50: > 1000 nM

## C[C@H]1CCC/C=C/[C@@H]2C[C@H](OC(=O)NCCO)C[C@H]2[C@H](O)/C=C/C(=O)O1
HepG2
  IC50: > 1000 nM

## C[C@H]1CCC/C=C/[C@@H]2C[C@H](O)C[C@H]2[C@H](OC(=O)c2ccncc2)/C=C/C(=O)O1
HepG2
  IC50: 650 nM

## C[C@H]1CCC/C=C/[C@@H]2C[C@H](OC(=O)c3ccccn3)C[C@H]2[C@H](OC(=O)c2ccccn2)/C=C/C(=O)O1
HepG2
  IC50: 340 nM

## COc1ccc(COC(=O)O[C@@H]2C[C@H]3[C@H](O)/C=C/C(=O)O[C@@H](C)CCC/C=C/[C@@H]3C2)cn1
HepG2
  IC50: > 1000 nM

## C[C@H]1CCC/C=C/[C@@H]2C[C@H](OC(=O)c3cncc(F)c3)C[C@H]2[C@H](OC(=O)c2cncc(F)c2)/C=C/C(=O)O1
HepG2
  IC50: > 1000 nM

## C[C@H]1CCC/C=C/[C@@H]2C[C@H](O)C[C@H]2[C@H](OC(=O)c2cccnc2)/C=C/C(=O)O1
HepG2
  IC50: > 1000 nM
Bel-7402
  IC50: 270 nM

## C[C@H]1CCC/C=C/[C@@H]2C[C@H](OC(=O)OCc3ccccn3)C[C@H]2[C@H](O)/C=C/C(=O)O1
HepG2
  IC50: > 1000 nM

## C[C@H]1CCC/C=C/[C@@H]2C[C@H](OC(=O)Nc3ccccc3)C[C@H]2[C@H](O)/C=C/C(=O)O1
HepG2
  IC50: > 1000 nM
